Key:
Type in all cases: cell-based, human
M2 macrophages = test: Mac-CD4 T co-culture surface marker modulation on macrophages
Procedure: For evaluation of Mac-CD4 T cell surface marker modulation, M2 macrophages were co-cultured with T cells as described above and cells were harvested on day 8, day 9 and day 10 to perform surface receptor staining on both M2 macrophages and T cells.
Changes in surface marker expression on both macrophages and CD3 & CD28-stimulated T cells were also measured. Vehicle- and β-glucan-treated M2 macrophages and CD T cells from the co-cultures were evaluated by flow cytometry for the modulation of co-stimulatory or co-inhibitory molecules. FIG. 8C and Table 9 are representative results from 2 different experiments.

M1 macrophages = test: Flow cytometry of M1/M2-specific markers on M1 macrophages derived from vehicle- or β-glucan-treated whole blood
Procedure: (§1) CD14^+ monocytes from human whole blood were enriched using Ficoll gradient and magnetic bead separation. Enriched monocytes (5×10^5 cells per mL) were then cultured in either M1-polarizing (XVivo 10 media (Lonza Group) supplemented with 5% autologous serum and 100 ng/mL recombinant human granulocyte macrophage colony-stimulating factor (rhGM-CSF) (R&D Systems) or M2-polarizing (XVivo 10 media supplemented with 10% autologous serum and 50 ng/mL recombinant human macrophage colony-stimulating factor (rhM-CSF) (R&D Systems) conditions for 6 days. In experiments performed to evaluate the effect of β-glucan, whole blood was first incubated with vehicle (sodium citrate buffer) or 25 μg/mL soluble β-glucan for 2 hours at 37° C. and then the monocytes were isolated and differentiated. Morphology was checked before macrophages were harvested for phenotypic analysis. Culture medium of the day 6 macrophage culture (MCM) was collected, spun down to remove contaminated cell pellet and then frozen down for subsequent cytokine analysis by ELISA or used to setup a co-culture with CD3 & CD28-stimulated CD4 T cells (MCM-CD4 T) for evaluation of either surface markers or CD4 T cell proliferation. The macrophages were used to setup a co-culture with CD3 & CD28- or CD3 only-stimulated CD4 T cells (Mac-CD4 T) on day 6 for evaluation of either surface marker modulation or effect on CD4 T cell proliferation. For Mac-CD4 T cell proliferation study, M1 or M2 macrophages were cultured with CD3 & CD28- or CD3 only-stimulated, CFSE-labeled, autologous CD4 T cells at a 1:10 ratio. T cell proliferation was measured at the end of the experiment (day 9-day 11) by flow cytometry, and results are graphically shown as CFSE-dilution peaks. The assessment of CD3-only stimulated T cells was always done on day 11. Quantitative results were reported as the Division Index (the average number of cell divisions a population underwent) calculated for each of the triplicate wells in each of the culture conditions. Culture supernatants of Mac-CD4 T co-cultures were collected for subsequent cytokine analysis.
M1 and M2 macrophages from vehicle- or β-glucan-treated whole blood were prepared as described above. […] In addition, surface expression of CD86 was enhanced as well as both protein and mRNA levels of PD-L1 (FIG. 2B).
Expression of a panel of markers was evaluated by flow cytometry for vehicle- and β-glucan-treated, high binder-derived M1 and M2 macrophages (CD163 was evaluated twice).
CD163 and CD86 were evaluated by flow cytometry for vehicle- and β-glucan-treated, low binder-derived M1 and M2 macrophages.

IFN-γ = IFN-γ ELISA of co-culture supernatants
Procedure: as §1
The culture supernatants from the CFSE dilution T-cell proliferation assay (FIG. 2B) were also measured for IFN-gamma levels by ELISA. […] Thus, β-glucan affects M2 to M1 repolarization and drives anti-tumorigenic Th1 polarization.
Modulation of IFN-γ and IL-4 production of vehicle- and β-glucan-treated M2 macrophages was then evaluated. […] Thus, M2 macrophages derived from β-glucan-treated monocytes are M1-like in high binder subjects.
M2 macrophages from 4 high binders and 4 low binders were prepared and evaluated for their ability to modulate CD4 T cell proliferation. The supernatants from the various CD4 T cell proliferation conditions were measured for IFN-γ by ELISA. Results shown in FIG. 10 are representative from 4 different experiments. Fold change over the IFN-γ levels produced in the co-cultures of vehicle-treated M2 macrophages and CD4 T cells are plotted for each of the 4 donors.

CD4 T cells = test: MCM-CD4 T cell proliferation and surface marker study
Procedure: For MCM-CD4 T cell proliferation study, CD3 & CD28-stimulated, CFSE-labeled CD4 T cells were cultured with 50% MCM. T cell proliferation was measured on day 11 as described above. Culture supernatants of the MCM-CD4 T cell co-culture were collected for subsequent cytokine analysis. MCM-CD4 T cell surface marker evaluation was performed as described above.
To determine whether soluble factors secreted from β-glucan-treated M2 macrophages are required, measurements were carried out of CD4 T cell proliferation co-cultured with β-glucan-treated M2 macrophages MCM (50% of volume) and surface activation marker modulation on T cells incubated with the MCM were observed. FIG. 9 is representative of 2 different experiments. […] In addition, the CD4 T cells cultured in vehicle- and β-glucan-treated M2 macrophage MCM were evaluated for modulation of co-stimulatory or co-inhibitory molecules (CD80, CD28, CTLA-4, 4-1BB and PD-1).
To test this, M2 macrophages were prepared as described above with a few modifications. The whole blood of a low binder was spun down to remove the plasma and then the cells were reconstituted with serum obtained from a high binder. The reconstituted blood was treated with vehicle or β-glucan (25 μg/mL) for 2 hours at 37° C. The monocytes were evaluated for binding by using anti-β-glucan specific monoclonal antibody and subsequent flow cytometry.

[1] = relative to vehicle-treated M2 macrophages, co-culture
[2] = M1 macrophages, high binder, 25 μg/mL

## β(1,6)-[poly-(1,3)-D-glucopyranosyl]-poly-β(1,3)-D-glucopyranose [β-glucan]
M2 macrophages; [1]
  Change in MFI on Macrophages: 4-1BBL: No change
  Change in MFI on Macrophages: CD40: No change
  Change in MFI on Macrophages: CD80: No change
  Change in MFI on Macrophages: CD172: No change
  Change in MFI on Macrophages: CD209: No change
  Change in MFI on Macrophages: OX40: No change
M2 macrophages; relative to vehicle-treated M2 macrophages, co-culture (day 8)
  Change in MFI on Macrophages: CD86: Increase
M2 macrophages; relative to vehicle-treated M2 macrophages, co-culture (day 9)
  Change in MFI on Macrophages: PD-L1 (CD274): Increase
M2 macrophages; β-glucan-treated M2 macrophages relative to vehicle-treated, co-culture with CD3 & CD28-stimulated T cells
  Change in MFI on Macrophages: HLA-DR: No change
M1 macrophages; [2]
  CD86 median MFI: 2113
  CD163 (1) median MFI: 158
  CD163 (2) median MFI: 230
  CD206 median MFI: 816
  CD209 median MFI: 318
  CD274 (PD-L1) median MFI: 5563
M1 macrophages; M1 macrophages, high binder, whole blood treated with 25 μg/mL soluble β-glucan 2 hours
  HLA-DR median MFI: 667
M1 macrophages; M1 macrophages, low binder
  CD86 median MFI: 3179
  CD163 median MFI: 132
M1 macrophages; β-glucan pretreatment of whole blood
  M1 macrophage phenotype (panel of M1/M2-specific markers): did not affect M1 macrophage phenotype
IFN-γ; M2 macrophage-CD4 T co-culture, FIG. 2D
  IFN-gamma levels in culture supernatants: concomitant increase in IFN-gamma production
IFN-γ; co-cultures of β-glucan-treated M2 macrophages and CD4 T cells, high binders
  IFN-γ production: significantly increased production
IFN-γ; co-cultures under immunosuppressive conditions (TCM, IL-4), FIG. 4
  IFN-γ production: significantly increased production
IFN-γ; co-cultures without exogenous CD28 antibody, FIG. 8B
  IFN-γ production: significantly increased production
IFN-γ; low binder crossed-over with high binder's serum, FIG. 11B
  IFN-γ production: significantly increased production
IFN-γ; β-glucan-treated M2 macrophages, low binders
  IFN-γ production: nor increased IFN-γ production
CD4 T cells; CD4 T cells cultured in β-glucan-treated M2 macrophage MCM (data not shown)
  T cell markers (CD80, CD28, CTLA-4, 4-1BB and PD-1): no change
CD4 T cells; MCM of M2 macrophages of a low binder crossed-over with high binder's serum, 25 μg/mL
  CD4 T cell proliferation: significantly higher ability to enhance
CD4 T cells; β-glucan-treated M2 macrophage MCM (50% of volume) vs vehicle-treated MCM
  CD4 T cell proliferation: significantly higher ability to enhance

Source: US10111901B2, “Beta-glucan in combination with anti-cancer agents affecting the tumor microenvironment” (Biothera, Inc., priority 2014, dated 2018)
